SMILES strings stand for the structures.

A short description of one data set: clinical. The format is in vivo, human. Particulars: single dose BIC 75 mg, fed, RIF 600 mg. On the procedure: This was a Phase 1, open-label, multiple-dose, multiple-cohort, adaptive design study in healthy adult subjects.
The duration of dosing was 9 days (with a 3-day washout between the first and second doses of study treatment). The study duration (not including screening) was approximately 21 days. The study had n=15 subjects.
In addition, the following multiple-dose plasma PK parameters of GS-9883 were calculated, as applicable: Ctau, Cmax, Clast, AUCtau, Tmax, Tlast, t1/2, and CL/F.
Serial blood samples for intensive PK sampling were collected at the following time points relative to the morning dose of study drug(s) administered: 0 (pre-dose) and 0.5, 1, 1.5, 2, 3, 4, 6, 8, 10, 12, 16, 24, 36, 48, 72, and 96 hours post-dose on Days 1 and 15. Daily pre-dose PK sampling was collected at days 10 and 14.
The ANOVA model included treatment as a fixed effect and subject as a random effect.

Data set [1] is described as follows: Phase 1 study: steady-state plasma PK of TAF and TFV after B/F/TAF BID with rifampin vs B/F/TAF QD alone. In kind it is in vivo, human. Particulars: BID TAF administration (B/F/TAF BID+RIF), compared to prior PK results of TDF-containing regimens, FIG. 2. The procedure: This study evaluated the steady state pharmacokinetics of TAF, TAF metabolite TFV, and emtricitabine (FTC) following coadministration of bictegravir/emtricitabine/tenofovir alafenamide (B/F/TAF) fixed dose combination (FDC) twice daily with rifampin 600 mg once daily compared to those of B/F/TAF FDC once daily administered alone.
In this Phase 1, open-label, parallel multiple dose study, healthy volunteers were assigned to one of two cohorts (cohort 1 (n=26) or cohort 2 (n=26)) and received study treatments beginning on day 1 and continuing for 28 days (cohort 1) or 35 days (cohort 2).
The duration of the study was approximately 57 days for cohort 1 and approximately 44 days for cohort 2. […]
Pharmacokinetic assessments of plasma PK and PBMC PK were evaluated. […] PK parameters of TFV-DP and FTC-TP in PBMCs were calculated as applicable and included AUCtau, Ctrough, Cmax, accumulation ratios, and t1/2 with and without RIF. […]
Plasma concentrations of TAF and TFV were determined and pharmacokinetics were evaluated as applicable.
Plasma concentrations were determined using validated liquid chromatography-tandem mass spectrometry (LC/MS/MS) assays. Intracellular PBMC TFV-DP concentrations were determined via a validated LC/MS/MS assay combined with PBMC cell counting via a DNA quantitation procedure. […]

The subject of the next data set is HIV. Particulars: cited from earlier work.
The conditions of data set [2]: intracellular TFV-DP with TDF; cited from earlier work.
For data set [3] the following is noted: peripheral blood mononuclear cells (PBMC) isolated from patients; cited from earlier work.

Consider `O=C(NCc1c(F)cc(F)cc1F)c1cn2c(c(O)c1=O)C(=O)N1[C@H]3CC[C@H](C3)O[C@@H]1C2` [BIC], for which, in the data set “clinical” (human, in vivo, BIC t1/2, plasma, median per text), the half-life was ~18.1 h. In addition, in “clinical” (plasma), the “BIC % AUCexp, Mean (% CV)” value was determined as 3.1%; the “BIC CL/F, Mean (% CV)” value was found to be 545.1 mL/h; the “BIC Clast, Mean (% CV)” value amounted to 192.7 ng/mL; the “BIC Tlast” value came to 95.93 h.
Consider `CC(C)OC(=O)[C@H](C)N[P@](=O)(CO[C@H](C)Cn1cnc2c(N)ncnc21)Oc1ccccc1` [TAF, 9-[(R)-2-[[(S)-[[(S)-1-(isopropoxycarbonyl)ethyl]amino]phenoxyphosphinyl]-methoxy]propyl]adenine], for which the “total overall systemic TFV plasma exposure over 24 hours vs TDF-containing regimens” value in data set [1] is listed as “markedly lower”. The “enhancement in anti-HIV activity in cell culture of TAF over TFV” value with HIV was 600 fold.
As to `CC(C)OC(=O)OCOP(=O)(CO[C@H](C)Cn1cnc2c(N)ncnc21)OCOC(=O)OC(C)C` [TDF, 9-[(R)-2-[[bis[[(isopropoxycarbonyl)oxy]methoxy]phosphinyl]methoxy]propyl]adenine], in data set [2], the “historical steady-state TFV-DP threshold effectiveness concentration” value is 85-222 fmol/10^6 cells.
Turning to `C[C@@H](Cn1cnc2c(N)ncnc21)OCP(=O)(O)OP(=O)(O)OP(=O)(O)O` [TFV-DP], in data set [3], the intracellular half-life was 150 h.

In general, half-life refers to the time needed for the level to fall by half in the phase considered.
